Measurements reported in US8658699B2, “Chemical permeation enhancers enhance nerve blockade by toxins” (priority 2008, dated 2014).
“And” between values parts separate entries of the source, which are not always exact repeats. Equal values may be shown once. Read-outs that look alike come from different tables or passages of the source.

Legend:
[1] = test system: sciatic nerve; settings: for % Animals with Effective Block / Duration of Sensory Block: Bupivacaine 1.4 mM with the EC50eff of each CPE, listed as '—' = bupivacaine alone; for Duration of Sensory Block: median; for TTX block duration compared to TTX alone: 30 μM TTX with CPE at the concentration giving maximum percentage of block, p<0.001; for Maximum Block Duration (MBD, minutes): CPE co-injected with 30 μM TTX, 0.3 mL at sciatic nerve, median (25th-75th percentiles); for ECMBD: CPE concentration that caused the maximum prolongation of block from 30 μM TTX; for CPE Concentration: lowest CPE concentration needed to achieve the highest percentage of animals with block, with 30 μM TTX; for EC50: read-out: EC50eff
[2] = test system: sciatic nerve; settings: 0.1-0.3 mL of 0.25%-0.5% (8.7-17 mM) bupivacaine (Kohane 1998, 1999); cited from earlier work
[3] = test system: C2C12 myotubes; settings: for % Survival: C2C12 myotubes, 2-hour exposure to each CPE at its EC50eff, head 'TTX 30 μm with:', mean ± SD, from FIG. 2
[4] = test system: sciatic nerves and surrounding muscle
[5] = test system: sciatic nerve; assay: animal or person; settings: Rattus norvegicus, read-out: EC50eff (mM)
[6] = test system: sciatic nerve; type: in vivo, Sprague-Dawley rats
[7] = 30 μM TTX with CPE, effective if latency >7 seconds at any point, listed as '—' = TTX alone
[8] = EC50eff of each enhancer without TTX, four days after injection, 4 animals per group

Compound | % Animals with Effective Block [1] | Duration of Sensory Block [1] | % Survival [3] | TTX block duration compared to TTX alone [1] | Highest % Animals with Effective Block [1, 7] | Maximum Block Duration (MBD, minutes) ([1]; listed as '—' = TTX alone) | ECMBD [1] | CPE Concentration [1] | EC100 min ([1]; rat, in vivo) | histology: muscle and nerve injury [4, 8] | EC50 [5] | also measured
CCCCN1CCCCC1C(=O)Nc1c(C)cccc1C (stereo not drawn) [Bupivacaine, bupivacaine, reference compound] | 42% | 0 min | – | – | – | – | – | – | – | – | – | successful blocks [2]: > 99%
CCCCCCCCCCCC[N+](C)(C)C.[Br-] [DDAB, Dodecyl-trimethyl-ammonium Bromide] | 0% | 0 min | 5 ± 0.2% | significantly improved TTX block duration | 100% | 606 (452-788) minutes | 8 mM | 6 mM | 1 mM | moderate to severe infiltration of macrophages and lymphocytes, atrophy and degeneration of muscle fibers, and fibrosis of the tissue | 6 mM | resolution of nerve block ([1]; 30 μM TTX in 32 mM DDAB): none of those rats' nerve blocks resolved; nerve blockade by CPE alone ([1]; 32 mM DDAB alone, without TTX, the exception to 'CPE alone did not cause nerve blockade'): with one exception; histology: tissue damage ([4]; 3% (97.3 mM) DDAB, two animals): deep and severe tissue damage, including ischemic necrosis, accompanied by severe and extensive inflammation; histology: muscle and nerve injury ([4]; EC50eff of the enhancers together with 30 μm TTX): severe lymphocytic inflammatory infiltration of muscle with degenerative changes, regenerative changes, and fibrosis
CCCCCCCC[N+](C)(C)C.[Br-] [OTAB, Octyl-trimethyl-ammonium Bromide] | 0% | 0 min | 53 ± 2% | significantly improved TTX block duration | 100% | 353 (327-361) minutes | 119 mM | 40 mM | 31 mM | no significant muscle or nerve injury | 30 mM | –
Cc1cccc(C)c1NC(=O)C[N+](C)(C)C [QX-222, 2-((2,6-dimethylphenyl)amino)-N,N,N-trimethyl-2-oxoethanaminium] | – | – | – | – | – | – | – | – | – | – | – | thermal nociceptive and motor blockade of the combination with TTX ([6]; 25 and 70 mM QX-314 or 70 and 100 mM QX-222 with 30, 40 or 50 μM TTX, FIGS. 5A and B): increased blockade significantly more than the mere cumulative value of the anesthetics alone
CC[N+](CC)(CC)CC(=O)Nc1c(C)cccc1C [QX-314, N-(2,6)dimethylphenylcarbamoylmethyl triethylammonium bromide] | – | – | – | – | – | – | – | – | – | – | – | thermal nociceptive and motor blockade of the combination with TTX ([6]; rat, in vivo): increased blockade significantly more than the mere cumulative value of the anesthetics alone
CCCCCCCCCCCCOS(=O)(=O)[O-].[Na+] [SLS, Sodium Dodecyl Sulfate] | 50% | 22 min | 17 ± 11% | significantly improved TTX block duration | 88% | – | 35 mM | 17 mM | – | no significant muscle or nerve injury | 4 mM | EC100 min ([1]; interpolated concentration of CPE that increased block duration of 30 μM TTX to 100 min): 3 mM
CCCCCCCCOS(=O)(=O)[O-].[Na+] [SOS, Sodium Octyl Sulfate] | 25% | 0 min | 5 ± 3% | significantly improved TTX block duration | 100% | 521 (361-669) minutes | 86 mM | 32 mM | 22 mM | no significant muscle or nerve injury | 32 mM | –
NC1=N[C@H](O)[C@H]2[C@H]3O[C@]4(O)O[C@@H]([C@@H](O)[C@@]2(N1)[C@@H]4O)[C@]3(O)CO [TTX, tetrodotoxin, reference compound] | – | – | – | – | – | – | – | – | – | – | – | % of animals with sensory blockade (effective nerve block) ([1]; rat, in vivo): 29% and 29.2%; Highest % Animals with Effective Block ([1]; rat, in vivo): 29%
polysorbate 20 [TW 20] | 25% | 0 min | 94 ± 3% | significantly improved TTX block duration | 100% | 163 (129-206) minutes | 49 mM | 4 mM | 4 mM | no significant muscle or nerve injury | – | C2C12 viability after longer exposure ([3]; CPE at EC50eff, 8-hour exposure / increasing duration of exposure (data not shown)): remained at untreated-control levels; EC50 ([1]; CPE concentration causing half-maximal increase in duration of block (half-MBD) of 30 μM TTX): 3 mM; histology: muscle and nerve injury ([4]; Tween 20 at 24.4 and 81.4 mM): progressively worsening (mild to moderate) muscle atrophy and inflammation
polysorbate 80 [TW 80] | 0% | 0 min | 80 ± 8% | significantly improved TTX block duration | 100% | 120 (111-143) minutes | 81 mM | 81 mM | 40 mM | no significant muscle or nerve injury | – | EC50 ([1]; rat, in vivo): 34 mM
